Results taken from patent US9056833B2, “Crystalline phases of 2′-{[2-(4-methoxy-phenyl)-acetylamino]-methyl}-biphenyl-2-carboxylic acid (2-pyridin-3-yl-ethyl)-amide” (SANOFI-AVENTIS DEUTSCHLAND GMBH, priority 2009, dated 2015).

How the values were obtained:
Assay type in all cases: physicochemical
[1] = Dynamic vapor sorption (DVS), moisture sorption/desorption isotherms; settings: 25° C.
Method: Moisture sorption/desorption isotherms were recorded on a DVS-1from Surface Measurement Systems. […] The data were evaluated with the software DVSWin V. 2.15With samples of phase 1, 2, 3and 4of compound I the following water uptake (in mass percent) as a function of the relative humidity was determined.

[2] = Thermodynamic stability of the polymorphs as a function of temperature
[3] = Solubility compared to other polymorphs
[4] = Maturation experiments (slurry conversion), relative stability of the polymorphs; settings: investigated temperature range 0° C. to 80° C.
Method: By maturation experiments (slurry conversion) in the temperature region from 0° C. to 80° C. the relative stability of the polymorphs of compound I was investigated.
Maturation experiments (a) to (d) were performed under the specified conditions, starting from a 1:1mixture of polymorphs 1and 4. • (a) The phase mixture was suspended in ethanol. After stirring the suspension for two days at 60° C., the solid was quickly isolated by vacuum filtration. • (b) The phase mixture was suspended in butyl acetate. After stirring the suspension for two days at 60° C., the solid was quickly isolated by vacuum filtration. • (c) The phase mixture was suspended in 1-pentanol. After stirring the suspension for four hours at 80° C., the solid was quickly isolated by vacuum filtration. • (d) The phase mixture was suspended in 1-octanol. After stirring the suspension for four hours at 80° C., the solid was quickly isolated by vacuum filtration.
Maturation experiments (e) to (p) were performed by stirring the suspension under the specified conditions and isolating the solid by vacuum filtration, starting from polymorph 4. • (e) Maturation of 0.208g of compound I in 1.3ml of water/methanol (1:1) was performed at room temperature for four weeks. […]

[5] = Stability of chloroform solvate outside the mother liquor
[6] = Temperature-resolved X-ray powder diffraction, DSC and TGA of toluene solvate; settings: on loss of solvent
Method: All X-ray powder diffraction was performed with Stoe Stadi-P transmission diffractometers using CuKα1radiation. For room temperature powder diffraction, linear position sensitive detectors were used, while for temperature-resolved XRPD image plate position sensitive detectors (IP-PSDs) were used. Unless stated otherwise, X-ray powder diffraction was performed at room temperature. Dry samples were investigated in a flat preparation whereas suspensions were investigated in quartz glass capillaries. […] The 2θ (2theta) angles in ° (degree) and the relative intensities of characteristic reflections are specified above, wherein the relative intensity of a reflection is designated as “strong” if it is more than 75% of the intensity of the most intense reflection or it is the most intense reflection itself, and as “medium” if it is between 20% and 75% of the intensity of the most intense reflection.
All DSC measurements were performed with a Mettler DSC822e (module DSC822e/700/109/414935/0025). If not indicated differently, 40μl Al crucibles with sealed lid and hole were used. All measurements were carried out in a nitrogen gas flow of 50mL/minute. The heating rate was 10° C./minute unless indicated otherwise. Temperature and heat flow were calibrated via the melting peak of an indium reference. The measured data were evaluated with the software STARe V6.1.

Question: Which “water uptake (in mass percent)” value ([1]; relative humidity 20%, listed as Phase 2) does the source give for COc1ccc(CC(=O)NCc2ccccc2-c2ccccc2C(=O)NCCc2cccnc2)cc1 [Polymorph 2, 2′-{[2-(4-methoxy-phenyl)-acetylamino]-methyl}-biphenyl-2-carboxylic acid (2-pyridin-3-yl-ethyl)-amide] here?
Answer: Its value is 0.04%.

Question: And the “water uptake (in mass percent)” value ([1]; relative humidity 40%, listed as Phase 2)?
Answer: The value was 0.05%.

Question: And the “water uptake (in mass percent)” value ([1]; relative humidity 60%, listed as Phase 2)?
Answer: Its value is 0.09%.

Question: What about the “water uptake (in mass percent)” value ([1]; relative humidity 80%, listed as Phase 2) of the same compound?
Answer: The value was 1.79%.

Question: And the “thermodynamic stability (in words)” value [2]?
Answer: The value was “metastable at any temperature”.

Question: What about the “solubility compared to other polymorphs” value [3] of the same compound?
Answer: The value was “higher solubility”.

Question: With COc1ccc(CC(=O)NCc2ccccc2-c2ccccc2C(=O)NCCc2cccnc2)cc1 [Polymorph 4, 2′-{[2-(4-methoxy-phenyl)-acetylamino]-methyl}-biphenyl-2-carboxylic acid (2-pyridin-3-yl-ethyl)-amide] as the compound, how does the “water uptake (in mass percent)” value ([1]; relative humidity 20%, listed as Phase 4) read?
Answer: Its value is 0.05%.

Question: And the “water uptake (in mass percent)” value ([1]; relative humidity 40%, listed as Phase 4)?
Answer: The value was 0.02%.

Question: What about the “water uptake (in mass percent)” value ([1]; relative humidity 60%, listed as Phase 4) of the same compound?
Answer: The value was 0.15%.

Question: And the “water uptake (in mass percent)” value ([1]; relative humidity 80%, listed as Phase 4)?
Answer: Its value is 1.80%.

Question: And the “temperature range in which the polymorph is thermodynamically stable” value [2]?
Answer: Its value is “around 90 °C”.

Question: With COc1ccc(CC(=O)NCc2ccccc2-c2ccccc2C(=O)NCCc2cccnc2)cc1 [Polymorph 1, 2′-{[2-(4-methoxy-phenyl)-acetylamino]-methyl}-biphenyl-2-carboxylic acid (2-pyridin-3-yl-ethyl)-amide] as the compound, how does the “water uptake (in mass percent)” value ([1]; relative humidity 20%, listed as Phase 1) read?
Answer: Its value is 0.00%.

Question: And the “water uptake (in mass percent)” value ([1]; relative humidity 40%, listed as Phase 1)?
Answer: The value was 0.01%.

Question: And the “water uptake (in mass percent)” value ([1]; relative humidity 60%, listed as Phase 1)?
Answer: Its value is 0.01%.

Question: And the “water uptake (in mass percent)” value ([1]; relative humidity 80%, listed as Phase 1)?
Answer: The value was 1.36%.

Question: What about the “temperature range in which the polymorph is thermodynamically stable” value [2] of the same compound?
Answer: The value was “below 90 °C”.

Question: What about the “relative thermodynamic stability among the known polymorphs” value [4] of the same compound?
Answer: The value was “thermodynamically most stable”.

Question: Which results are given for COc1ccc(CC(=O)NCc2ccccc2-c2ccccc2C(=O)NCCc2cccnc2)cc1 [chloroform solvate, 2′-{[2-(4-methoxy-phenyl)-acetylamino]-methyl}-biphenyl-2-carboxylic acid (2-pyridin-3-yl-ethyl)-amide]?
Answer: stability outside the mother liquor [5]: only moderately stable; form obtained on transformation ([5]; outside the mother liquor): starts to transform to polymorph 2

Question: Which “water uptake (in mass percent)” value ([1]; relative humidity 20%, listed as Phase 3) does the source give for COc1ccc(CC(=O)NCc2ccccc2-c2ccccc2C(=O)NCCc2cccnc2)cc1 [Polymorph 3, 2′-{[2-(4-methoxy-phenyl)-acetylamino]-methyl}-biphenyl-2-carboxylic acid (2-pyridin-3-yl-ethyl)-amide] here?
Answer: Its value is 0.02%.

Question: And the “water uptake (in mass percent)” value ([1]; relative humidity 40%, listed as Phase 3)?
Answer: Its value is 0.03%.

Question: What about the “water uptake (in mass percent)” value ([1]; relative humidity 60%, listed as Phase 3) of the same compound?
Answer: The value was 0.06%.

Question: And the “water uptake (in mass percent)” value ([1]; relative humidity 80%, listed as Phase 3)?
Answer: The value was 0.30%.

Question: What about the “thermodynamic stability (in words)” value [2] of the same compound?
Answer: Its value is “only metastable below 90 °C”.

Question: With COc1ccc(CC(=O)NCc2ccccc2-c2ccccc2C(=O)NCCc2cccnc2)cc1 [toluene solvate, 2′-{[2-(4-methoxy-phenyl)-acetylamino]-methyl}-biphenyl-2-carboxylic acid (2-pyridin-3-yl-ethyl)-amide] as the compound, how does the “form obtained on transformation” value [6] read?
Answer: The value was “transforms to polymorph 4”.
